Values of other authors as cited in patent US20090105195A1, “COMPOSITION COMPRISING MICROBICIDAL ACTIVE INGREDIENTS” (priority 2007, published 2009).

Tests used:
Conditions in all cases: at low amounts, such as 0.025%
[1] = test system: Human Papilloma Virus (HPV)
Herpes Simplex Virus = test system: Herpes Simplex Virus
[2] = test system: Human Immunodeficiency Virus

CCCCCCCCCCCCOS(=O)(=O)[O-].[Na+] [SLS, sodium lauryl sulfate]
complete inactivation: inactivation of Human Papilloma Virus (HPV) [1] | inactivation of Herpes Simplex Virus (Herpes Simplex Virus) | inactivation of Human Immunodeficiency Virus [2]
